Source: patent publication US20070015780A1, “Method of treating cancer with azaspirane compositions” (priority 2003, published 2007)

Assays:
HS 578T = test: NCI SRB tumor cell growth assay, Breast Cancer; assay type: cell-based
Experimental: (§1) An in vitro assay which tested the ability of N,N,-diethyl-8,8-dipropyl-2-azaspiro[4,5]decane-2-propanamine dimaleate (Compound 1) to inhibit the growth of known cancer cell lines was performed by the National Cancer Institute in accordance with standard procedures. See: Lin, Z. X., Hoult, J. R., and Raman, A. Sulphorhodamine B assay for measuring proliferation of a pigmented melanocyte cell line and its application to the evaluation of crude drugs used in the treatment of vitiligo. J Ethnopharmacol. 66: 141-150, 1999. Briefly, selected tumor cell lines were cultured in media containing five different concentrations of Compound 1. After 48 hours of continuous exposure, a sulforhodamine B (SRB) assay was used to estimate cell viability or growth via optical measurements.
(§2) From the measurements, the following values were determined: 1) the concentration of Compound 1 at which a tumor cell growth inhibition of 50% (relative to control) occurs (GI50), 2) the concentration of Compound 1 at which no growth occurs (total growth inhibition, TGI), and 3) the concentration of Compound 1 at which the […] (LC 50). […] FIG. 6 illustrates, graphically, tumor cell growth as a function of Compound 1 concentration of the scanned tumor cell lines.

CaCo-2 cells = test: Induction of apoptosis, DNA fragmentation analysis; assay type: cell-based, human; details: 12 hours
Experimental: (§3) T84, CaCo-2 and HUVEC cells, respectively, were grown in 100 mm dishes for 7-9 days, culture media for HUVEC was EGM-2 (Clonetics, BioWhitaker Co.), until they reached semi-confluency. Cell monolayers were then treated for 12 hours (CaCo-2 and T84) and 16 hours (HUVEC), respectively, at the indicated concentrations of N,N,-diethyl-8,8-dipropyl-2-azaspiro[4,5]decane-2-propanamine dimaleate (Compound 1) in culture media. Cells were collected by trypsinization and the apoptotic DNA was isolated from these cells following the instructions of the DNA fragmentation analysis kit (Boehringer Mannheim Corp., Indianapolis, Ind.). The apoptotic DNA was evaluated using 1.5% agarose gel electrophoresis followed by staining with ethidium bromide. M denotes the lane containing molecular weight markers of DNA.

HUVEC cells = test: Induction of apoptosis, DNA fragmentation analysis; assay type: cell-based, human; details: 16 hours
Experimental: as §3

T84 cells = test: Induction of apoptosis, DNA fragmentation analysis; assay type: cell-based, human; details: 12 hours
Experimental: as §3

caspase-3 = test: Activation of caspases in T84 colon carcinoma cells; assay type: cell-based, human; details: 10 hours
Experimental: (§4) Activities of caspase-3 and caspase-9 were measured using […] assay kits (BioVision, CA). The procedure used was essentially the same as described in the manufacturer's instruction. Briefly, 7-day-old monolayers of T 84 cells in 100 mm dishes were treated with either vehicle (as control) or N,N,-diethyl-8,8-dipropyl-2-azaspiro[4,5]decane-2-propanamine dimaleate (Compound 1) at the indicated respective concentrations for 10 hours. After the treatment, cells were washed with PBS and the cell extracts were prepared by resuspending cells in 200 μl (˜10^8 cells) of lysis buffer provided in the kit. Cell debris was removed by centrifugation at 10,000×g for 30 min. Supernatants (50-100 μg of protein) were pre-incubated with 10 mM dithiothreitol, 50 mM HEPES, 10% sucrose, 0.1% CHAPS (pH 7.5) and the reaction was started with the addition of 100 μM of the appropriate substrate (DEVD-pNA for caspase-3 and LEHD-pNA for caspase-9). The assay plates (96-well) were incubated at 37° C. for 2 hours, and the yellow color resulting from the release of pNA was measured at 405 nm using an ELISA reader. Samples were run in triplicate and results were expressed as an average of three determinations.

caspase-9 = test: as above; assay type: cell-based, human; details: 10 hours
Experimental: as §4

Various Tumor Cell Lines = test: NCI SRB tumor cell growth assay, summary over all cell lines; assay type: cell-based
Experimental: as §1, §2

[1] = tested on: chorioallantoic membrane (CAM); test: Anti-angiogenesis CAM assay; assay type: in vivo, White Leghorn eggs; details: ten eggs, 48 hours
Experimental: The dosing was effected by pipetting 40 μl of the indicated solution onto a 13 mm round Thermanox® coverslip and allowing it to air dry. After the material appeared dry, the coverslip was placed onto the chorioallantoic membrane (CAM) of each egg insuring contact of the dried test article with the CAM. After dosing, the eggs were returned to the incubator for approximately 48 hours. Following the 48 hour exposure period, the eggs were removed from the incubator, observed for viability, and the exposed area under the coverslip was examined for loss of vasculature.

With `CCCC1(CCC)CCC2(CCN(CCCN(CC)CC)C2)CC1.O=C(O)/C=C\C(=O)O.O=C(O)/C=C\C(=O)O` [Compound 1, N,N,-diethyl-8,8-dipropyl-2-azaspiro[4,5]decane-2-propanamine dimaleate] the “Log10 TGI” value (HS 578T) was −5.40, the “DNA laddering (apoptosis)” value (CaCo-2 cells) was “formation of DNA laddering in a dose-dependent manner” and the “DNA laddering (apoptosis)” value (HUVEC cells) was “formation of DNA laddering in a dose-dependent manner”. The “DNA laddering (apoptosis)” value (T84 cells) was “formation of DNA laddering in a dose-dependent manner”, the caspase-3 activity (caspase-3) was “activation” and the caspase-9 activity (caspase-9) was “activation”. For the same molecule, the “Log10 LC50, MG_MID” value (Various Tumor Cell Lines) was −5.06, the “Dead Eggs” value ([1]; Dose Per Egg 25 μg) was 0 and the “Dead Eggs” value ([1]; Dose Per Egg 50 μg) was 0. For the same molecule, the “Dead Eggs” value ([1]; Dose Per Egg 100 μg) was 4, the “Dead Eggs” value ([1]; Dose Per Egg 200 μg) was 3 and the “Dead Eggs” value ([1]; Dose Per Egg 400 μg) was 7.
`O=C1CCC(N2C(=O)c3ccccc3C2=O)C(=O)N1` (stereo not shown) [Thalidomide, reference compound] was tested, and the “Dead Eggs” value ([1]; Dose Per Egg 100 μg) was 0.
